Legend:
Type in all cases: cell-based, human
HCC2935 cells = assay: Alamar Blue proliferation assay, HCC2935; conditions: 30 nM, normalized to negative control miRNA (100% proliferation)
Description: (§1) The inventors assessed the therapeutic effect of hsa-miR-147 for lung cancer by using 12 individual lung cancer cell lines. To measure cellular proliferation of lung cancer cells, the following parental non-small cell lung cancer (NSCLC) cells were used: cells derived from lung adenocarcinoma (A549, H1299, H522, H838, Calu-3, HCC827, HCC2935), cells derived from lung squamous cell carcinoma (H520, H226), cells derived from lung adenosquamous cell carcinoma (H596), cells derived from lung bronchioalveolar carcinoma (H1650), and cells derived from lung large cell carcinoma (H460). In addition to these parental cell lines, highly metastatic NSCLC cells were used that stably express the firefly luciferase gene: A549-luc, H460-luc, HCC827-luc, H1650-luc, H441-luc. Unlike the parental cell lines, these metastatic cells readily migrate to distant sites of the test animal and form metastases upon subcutaneous, orthotopic, or intravenous injection. Synthetic hsa-miR-147 or negative control miRNA was delivered via lipid-based transfection into A549, H1299, H522, H838, Calu-3, HCC827, HCC2935, H520, H596, H1650, H460, A549-luc, H460-luc, HCC827-luc, H1650-luc, H441-luc cells and via electroporation into H226 cells. […]

[1] = tested on: parental lung cancer cells; assay: Alamar Blue proliferation assay, average over parental lung cancer cell lines; conditions: average of 12 parental lung cancer cell lines; vs negative control miRNA (=100%); 72 hours (Calu-3 10 days)
Description: as §1

RWPE2 cells = assay: Alamar Blue proliferation assay, RWPE2; conditions: 30 nM, normalized to negative control miRNA (100% proliferation)
Description: The inventors assessed the therapeutic effect of hsa-miR-147 for prostate cancer by using 4 individual human prostate cancer cell lines. To measure cellular proliferation of prostate cancer cells, the following prostate cancer cell lines were used: PPC-1 and PC3, derived from a bone metastasis; Du145, derived from a brain metastasis; RWPE2, derived from prostate cells immortalized by human papillomavirus 18 and transformed by the K-RAS oncogene (Bello et al., 1997; Stone et al., 1978; Brothman et al., 1991). PC3, PPC-1, and Du145 cells lack expression of the prostate-specific antigen (PSA) and are independent of androgen receptor (AR) signaling. In contrast, RWPE2 cells test positive for PSA and AR.
PPC-1, Du145 and RWPE2 cells were transfected with synthetic hsa-miR-147 (Pre-miR™-hsa-miR-147, Ambion cat. no. AM17100) or negative control miRNA (NC; Pre-miR™ microRNA Precursor Molecule-Negative Control #2; Ambion cat. no. AM17111) in a 96-well format using a lipid-based transfection reagent. […] Proliferation was assessed 4-7 days post-transfection using Alamar Blue™ (Invitrogen) following the manufacturer's instructions. […] Fluorescent light units (FLU) were measured after 3 hours, normalized to the control, and plotted as percent change in proliferation. […]

hsa-miR-147: Synthetic pre-miR-147 (Ambion AM17100; Dharmacon in vivo); mature sequence GUGUGUGGAAAUGCUUCUGC, MIMAT0000251, SEQ ID NO:114 (synthetic pre-miR (Ambion/Dharmacon), chemistry not given here; listed as Homo sapiens)
% proliferation (HCC2935 cells): 60.35%
inhibition of cellular proliferation, on average [1]: 25%
% proliferation (RWPE2 cells): 79.08%
